We go through one compound from patent US20250002450A1, “CATIONIC STEROID COMPOUNDS, METHOD OF OBTAINING THEREOF, FORMULATIONS COMPRISING THEREOF AND THEIR USES” (UNIVERSIDADE DO PORTO, priority 2021, published 2025).

The structures appear in SMILES notation.

In one test the test system is E. coli SA/2 (ESBL). In words: Kirby-Bauer disk diffusion. It counts as cell-based. The conditions noted are these: 15 μg per disk. As for the experimental part: (§1) An initial screening of the antibacterial activity of the compounds was performed by the Kirby-Bauer disk diffusion method, as recommended by the Clinical and Laboratory Standards Institute (CLSI). Briefly, sterile 6 mm blank paper disks (Oxoid, Basingstoke, England) impregnated with 15 μg of each compound were placed on inoculated MH agar plates. A blank disk with dimethylsulfoxide (DMSO) was used as a negative control. MH inoculated plates were incubated for 18-20 h at 37 degrees C. At the end of incubation, the inhibition halos where measured. The MIC was used to determine the antibacterial activity of each compound, in accordance with the recommendations of the CLSI. Two-fold serial dilutions of the compounds were prepared in Mueller-Hinton Broth 2 (MHB2—Sigma-Aldrich, St. Louis, MO, USA) within the concentration range of 0.062-64 μg/mL. CTX ranging between 0.031-16 μg/mL was used as a control. Sterility and growth controls were included in each assay. Purity checks and colony counts of the inoculum suspensions were also performed in order to ensure that the final inoculum density closely approximates the intended number (5×10^5 CFU/mL). The MIC was determined as the lowest concentration of compound that inhibited growth of the bacteria. The MBC was assessed by spreading 10 μL of culture collected from wells showing no visible growth on MH agar plates. […] These assays were performed in duplicate.

For test [1], the system named is Escherichia coli ATCC 25922. The test is described as follows: Kirby-Bauer disk diffusion. The format is cell-based. The note with it: 15 μg per disk. The procedure:
as §1

Test [2] deals with Pseudomonas aeruginosa ATCC 27853. The test is described as follows: Kirby-Bauer disk diffusion. It counts as cell-based. The conditions noted are these: 15 μg per disk. The procedure: as §1
A general note: Agar diffusion results depend on both activity and mobility in agar.

In test [3] the test system is Staphylococcus aureus ATCC 29213. The test is described as follows: Kirby-Bauer disk diffusion. It counts as cell-based. The note with it: 15 μg per disk. As for the experimental part: as §1
A further test relates to C. jejuni P5/4. The test is described as follows: Kirby-Bauer disk diffusion. It counts as cell-based, Campylobacter jejuni. The conditions noted are these: 15 μg per disk. As for the experimental part: (§2) An initial screening of the antibacterial activity of the compounds was performed by the Kirby-Bauer disk diffusion method, as recommended by the Clinical and Laboratory Standards Institute (CLSI). Briefly, sterile 6 mm blank paper disks (Oxoid, Basingstoke, England) impregnated with 15 μg of each compound were placed on inoculated MH agar plates. A blank disk with dimethylsulfoxide (DMSO) was used as a negative control. MH inoculated plates were incubated for 18-20 h at 37 degrees C. At the end of incubation, the inhibition halos where measured. The MIC was used to determine the antibacterial activity of each compound, in accordance with the recommendations of the CLSI. Two-fold serial dilutions of the compounds were prepared in Mueller-Hinton Broth 2 (MHB2—Sigma-Aldrich, St. Louis, MO, USA) within the concentration range of 0.062-64 μg/mL. CTX ranging between 0.031-16 μg/mL was used as a control. Sterility and growth controls were included in each assay. Purity checks and colony counts of the inoculum suspensions were also performed in order to ensure that the final inoculum density closely approximates the intended number (5×10^5 CFU/mL). The MIC was determined as the lowest concentration of compound that inhibited growth of the bacteria. The MBC was assessed by spreading 10 μL of culture collected from wells showing no visible growth on MH agar plates. […]

A further test has as its system E. faecalis B3/101 (VRE). In words: Kirby-Bauer disk diffusion. The conditions noted are these: 15 μg per disk. The format is cell-based, Enterococcus faecalis. The procedure: as §2
The test system of test [4] is Enterococcuss faecalis ATCC 29212. The test is described as follows: Kirby-Bauer disk diffusion. The note with it: 15 μg per disk. It counts as cell-based, Enterococcus faecalis. The procedure: as §2
The subject of a further test is E. coli 2252. In words: Checkerboard synergy with COL. The format is cell-based, Escherichia coli. As for the experimental part: (§3) The combined effect of compound 1 and CTX for E. coli SA/2, VAN for E. faecalis B3/101, COL for E. coli 2252, erythromycin for E. coli ATCC 25922, and OXA for S. aureus 66/1 was evaluated by the checkerboard method. […] The interaction between compound 1 and erythromycin was assessed for E. coli ATCC 25922. Gram-negative bacteria are intrinsically resistant to erythromycin, a macrolide that inhibits protein synthesis, and cannot penetrate the outer membrane of Gram-negative bacteria, which is impermeable to hydrophobic antibiotics. Ascertain ceragenins have been previously described to be able to enhance the efficacy of such antibiotics, this possibility was investigated for compound 1 and a FICI of 0.6 was obtained.

The next test concerns E. coli ATCC 25922. The test is described as follows: Checkerboard synergy with erythromycin. It counts as cell-based, Escherichia coli. The note with it: E. coli ATCC 25922. The procedure:
as §3

For the next test, the system named is E. faecalis ATCC 29212. In words: Bacterial biofilm formation inhibition (crystal violet). The format is cell-based, Enterococcus faecalis. As for the experimental part:
In an embodiment, the antibiofilm activity of compound 1 was performed as follows. Given its bactericidal effect, the impact of compound 1 on the biofilm formation of reference strains was studied.
The effect of compound 1 on bacterial biofilm formation was evaluated through quantification of total biomass, using the crystal violet method, as previously described ([FIG. 6]). […] A control with an appropriate concentration of DMSO, as well as a negative control (TSB alone) was included. Sterile 96-well flat-bottomed untreated polystyrene microtiter plates were used. After a 24 h incubation at 37 degrees C., the biofilms were heat-fixed for 1 h at 60 degrees C. and stained with 0.5% (v/v) crystal violet (Quimica Clinica Aplicada, Amposta, Spain) for 5 min. The stain was resolubilized with 33% (v/v) acetic acid (Acetic acid 100%, AppliChem, Darmstadt, Germany) and the biofilm biomass was quantified by measuring the absorbance of each sample at 570 nm in a microplate reader (Thermo Scientific Multiskan® EX, Thermo Fisher Scientific, Waltham, MA, USA). The background absorbance (TSB or TSB+1% glucose without inoculum) was subtracted from the absorbance of each sample and the data are presented as a percentage of control. Three independent assays were performed for reference strains, with triplicates for each experimental condition.

For test [5], the system named is C. albicans ATCC 10231. In words: Checkerboard synergy with antifungal drugs. It counts as cell-based, Candida albicans.
Experimental: According to the consensus interpretation of FICI values, FICI≤0.5 is interpreted as ‘synergy’. […] Inoculum and compound solutions were prepared as described for antifungal susceptibility testing. Fractional inhibitory concentrations (FIC) were calculated as follows: FIC of compound=MIC of compound combined with antifungal/MIC compound alone, and FIC antifungal=MIC of antifungal combined with compound/MIC of antifungal alone. The FIC index (FICI) was calculated as the sum of each FIC and interpreted as follows: FICI≤0.5, ‘synergy’; 0.5<FICI≤4, ‘no interaction’; FICI>4, ‘antagonism’. At least three independent experiments were performed and mean FICI was calculated.
Test [6] has as its system C. albicans ATCC 10231. The test is described as follows: Biofilm formation (crystal violet). It counts as cell-based, Candida albicans. The conditions noted are these: 2×MIC to ¼×MIC (128-16 μg/mL), 48 h. As for the experimental part:
The effect of compound 1 on biofilm formation of C. albicans ATCC 10231 was evaluated through quantification of total biomass by crystal violet staining. […] A control with appropriate concentration of DMSO, as well as a negative control (RPMI alone), were included. Sterile 96-well flat-bottomed untreated polystyrene microtiter plates were used. After a 48 h incubation at 35° C., the biofilms were stained with 1% (v/v) crystal violet for 5 min. The stain was solubilized with 33% (v/v) acetic acid and the biofilm biomass was quantified by measuring the absorbance of each sample at 570 nm in a microplate reader (Thermo Scientific Multiskan® EX, Thermo Fisher Scientific, Waltham, MA, USA). The background absorbance (RPMI without inoculum) was subtracted, and the data are presented as percentage of control. Three independent assays were performed in triplicate for each experimental condition.

For test [7], the system named is marine biofilm-forming bacterial strains. The note with it: cited from earlier work.

For `C[C@H](CCC(=O)NCCN)[C@H]1CC[C@H]2[C@@H]3CC[C@@H]4C[C@H](O)CC[C@]4(C)[C@H]3C[C@H](O)[C@]12C` [Compound 1, (R)—N-(2-aminoethyl)-4-((3R,5R,8R,9S,10S,12S,13R,14S,17R)-3,12-dihydroxy-10,13-dimethylhexadecahydro-1H-cyclopenta[a]phenanthren-17-yl) pentanamida], the Disk diffusion in the test on E. coli SA/2 (ESBL) came out at 8 mm; in [1] it was 8 mm; in [2], 8 mm; in test [3], 13 mm; with C. jejuni P5/4 it was 8 mm; in the test with E. faecalis B3/101 (VRE), 11 mm. Moreover, the Disk diffusion in [4] is listed as 13 mm. The “combined effect with COL (in words)” value in the test with E. coli 2252 (checkerboard, E. coli 2252) is on record as “No synergistic interactions”. The “fractional inhibitory concentration index (FICI)” value was 0.6 in the test with E. coli 2252 (with COL, E. coli 2252 (mcr-1)); 0.6 in the test on E. coli ATCC 25922 (with erythromycin); at most 0.5 in the test on C. albicans ATCC 10231 [5] (with amphotericin B); at most 0.5 in the test on C. albicans ATCC 10231 [5] (with fluconazole). Further, the “combined effect with erythromycin (in words)” value in the test on E. coli ATCC 25922 (checkerboard) was “No synergistic interactions”. The “biofilm formation (in words)” value in the test on E. faecalis ATCC 29212 (2×MIC and MIC, 24 h) was “significantly inhibited”; in the test with C. albicans ATCC 10231 [6], “significant inhibition of biofilm formation”. Besides, in the test with E. faecalis ATCC 29212 (80% reduction of biofilm formation, E. faecalis ATCC 29212), the “minimal biofilm inhibitory concentration (MBIC)” value is under 4 µg/mL. Also, the “effect on trailing caused by fluconazole at its MIC (in words)” value in the test on C. albicans ATCC 10231 [5] (16 μg/mL of compound 1 (¼×MIC), fluconazole 2 μg/mL) is listed as “eliminated trailing”. For the same compound, in test [7], the “activity against growth of marine biofilm-forming bacterial strains (in words)” value was “active”.
